{
  "source": "patent US9775353B2",
  "about": "“Pesticidally active heterocyclic derivatives with sulphur containing substituents” (Syngenta Participations AG, priority 2014, dated 2017)",
  "key": {"[1]": {"system": "Tetranychus urticae (two-spotted spider mite)", "assay": "Example B12: Activity against Tetranychus urticae", "assay_type": "in vivo", "settings": "foliar, 192 h, application rate 400 ppm, bean leaf discs sprayed, mixed population (mobile stages), 8 days after infestation", "procedure": "Example B12: Activity Against Tetranychus urticae (Two-Spotted Spider Mite)\nBean leaf discs on agar in 24-well microtiter plates were sprayed with aqueous test solutions prepared from 10,000 ppm DMSO stock solutions. After drying the leaf discs were infested with a mite population of mixed ages. The samples were assessed for mortality on mixed population (mobile stages) 8 days after infestation."}, "[2]": {"system": "Diabrotica balteata (corn root worm)", "assay": "Example B3: Activity against Diabrotica balteata (larvae L2 on maize sprouts, feeding/contact, preventative)", "assay_type": "in vivo", "settings": "120 h, maize sprouts sprayed, larval mortality and growth regulation after 5 days", "procedure": "Example B3: Activity Against Diabrotica balteata (Corn Root Worm) (Larvae L2 on Maize Sprouts, Feeding/Contact, Preventative) Maize sprouts, placed on an agar layer in 24 well micro titer plates were treated with test solutions by spraying. After drying, the MTPs were infested with L2 larvae (6-10 per well). After an incubation period of 5 days, samples were checked for larval mortality and growth regulation."}, "[3]": {"system": "Spodoptera littoralis (Egyptian cotton leaf worm)", "assay": "Example B1: Activity against Spodoptera littoralis (larvicide, feeding/residual contact, preventive)", "assay_type": "in vivo", "settings": "foliar, 72 h, cotton leaf discs sprayed, L1 larvae, mortality, repellent effect, feeding behaviour, growth regulation 3 days after treatment", "excerpt": "Example B1: Activity Against Spodoptera littoralis (Egyptian Cotton Leaf Worm) (Larvicide, Feeding/Residual Contact Activity, Preventive) Cotton leaf discs were placed on agar in a 24-well microtiter plate and sprayed with test solutions. After drying, the leaf discs were infested with 5 L1 larvae. The samples were checked for mortality, repellent effect, feeding behaviour, and growth regulation 3 days after treatment (DAT)."}, "[4]": {"system": "Thrips tabaci (onion thrips)", "assay": "Example B11: Activity against Thrips tabaci", "assay_type": "in vivo", "settings": "foliar, 144 h, application rate 400 ppm, sunflower leaf discs sprayed, mixed ages, 6 days after infestation", "procedure": "Example B11: Activity Against Thrips tabaci (Onion Thrips)\nSunflower leaf discs were placed on agar in 24-well microtiter plates and sprayed with aqueous test solutions prepared from 10,000 ppm DMSO stock solutions. After drying the leaf discs were infested with a thrips population of mixed ages. The samples were assessed for mortality 6 days after infestation."}, "[5]": {"system": "Myzus persicae (green peach aphid)", "assay": "Example B8: Activity against Myzus persicae (feeding/residual contact, preventive, mixed population)", "assay_type": "in vivo", "settings": "foliar, 144 h, sunflower leaf discs sprayed, mixed ages, mortality 6 DAT", "procedure": "Example B8: Activity Against Myzus persicae (Green Peach Aphid) (Feeding/Residual Contact Activity, Preventive), Mixed Population Sunflower leaf discs were placed on agar in a 24-well microtiter plate and sprayed with test solutions. After drying, the leaf discs were infested with an aphid population of mixed ages. After an incubation period of 6 DAT, samples were checked for mortality and special effects (e.g. phytotoxicity)."}, "[6]": {"system": "Spodoptera littoralis (Egyptian cotton leaf worm)", "assay": "Example B7: Activity against Spodoptera littoralis (systemic activity)", "assay_type": "in vivo", "settings": "120 h, systemic via lettuce roots in agar, mortality, repellent effect, feeding behavior, growth regulation 5 days after infestation", "excerpt": "Example B7: Activity Against Spodoptera littoralis (Egyptian Cotton Leaf Worm) (Systemic Activity) Test compounds were applied by pipette into 24 well plates and mixed with agar. Lettuce seeds were placed on the agar and the multi well plate is closed by another plate which contains also agar. After 7 days the roots have absorbed the compound and the lettuce has grown into the lid plate. The lettuce leaves were now cut off into the lid plate. Spodoptera eggs were pipetted through a plastic stencil on a humid gel blotting paper and the plate closed with it. The samples are checked for mortality, repellent effect, feeding behavior, and growth regulation 5 days after infestation."}, "[7]": {"system": "Bemisia tabaci (cotton white fly)", "assay": "Example B5: Activity against Bemisia tabaci (adulticide contact activity, preventative)", "assay_type": "in vivo", "settings": "foliar, 168 h, cotton leaf discs sprayed, adult white flies, mortality 7 DAT", "procedure": "Example B5: Activity Against Bemisia tabaci (Cotton White Fly) (Adulticide Contact Activity, Preventative), Adult Cotton leaf discs were placed on agar in a 24-well microtiter plate and sprayed with test solutions. After drying, the leaf discs were infested with adult white flies. After an incubation period of 7 DAT, samples were checked for mortality and special effects (e.g. phytotoxicity)."}, "[8]": {"system": "Plutella xylostella (diamond back moth)", "assay": "Example B2: Activity against Plutella xylostella (larvicide, feeding/residual contact, preventive)", "assay_type": "in vivo", "settings": "120 h, artificial diet, L2 larvae, larval mortality, antifeedant, growth regulation after 5 days", "procedure": "Example B2: Activity Against Plutella xylostella (Diamond Back Moth) (Larvicide, Feeding/Residual Contact Activity, Preventive) 24-well microtiter plate (MTP) with artificial diet was treated with test solutions by pipetting. After drying, the MTPs were infested with L2 larvae (10-15 per well). After an incubation period of 5 days, samples were checked for larval mortality, antifeedant and growth regulation."}, "[9]": {"system": "Euschistus heros (neotropical brown stink bug)", "assay": "Example B10: Activity against Euschistus heros", "assay_type": "in vivo", "settings": "120 h, soybean leaf sprayed, N-2 nymphs, mortality 5 days after infestation", "procedure": "Example B10: Activity Against Euschistus heros (Neotropical Brown Stink Bug) Soybean leaf on agar in 24-well microtiter plates were sprayed with aqueous test solutions prepared from 10,000 ppm DMSO stock solutions. After drying the leaf were infested with N-2 nymphs. The samples were assessed for mortality 5 days after infestation."}},
  "data": [
    {"smiles": "CCS(=O)(=O)c1cc(-c2ccccc2C(F)(F)F)cnc1-c1nc2cc(C(F)(F)F)ncc2n1C", "note": "[Compound P4]", "values": [
      {"measurement": "mortality at 400 ppm", "setting": "[1]", "value": "≥ 80", "unit": "%"},
      {"measurement": "pest or weed control at 400 ppm", "setting": "[2]", "value": "> 80", "unit": "%"},
      {"measurement": "pest or weed control at 400 ppm", "setting": "[3]", "value": "> 80", "unit": "%"}
    ]},
    {"smiles": "CCS(=O)(=O)c1cc(-c2cc(F)cc(F)c2)cnc1-c1nc2cc(C(F)(F)F)ncc2n1C", "note": "[Compound P7]", "values": [
      {"measurement": "mortality at 400 ppm", "setting": "[4]", "value": "≥ 80", "unit": "%"},
      {"measurement": "pest or weed control at 400 ppm", "setting": "[5]", "value": "> 80", "unit": "%"},
      {"measurement": "pest or weed control at 400 ppm", "setting": "[2]", "value": "> 80", "unit": "%"},
      {"measurement": "pest or weed control at 12.5 ppm", "setting": "[6]", "value": "≥ 80", "unit": "%"},
      {"measurement": "pest or weed control at 400 ppm", "setting": "[7]", "value": "> 80", "unit": "%"},
      {"measurement": "pest or weed control at 400 ppm", "setting": "[3]", "value": "> 80", "unit": "%"},
      {"measurement": "pest or weed control at 400 ppm", "setting": "[8]", "value": "> 80", "unit": "%"},
      {"measurement": "pest or weed control at 400 ppm", "setting": "[9]", "value": "> 80", "unit": "%"}
    ]},
    {"smiles": "CCS(=O)(=O)c1cc(-c2ccc(F)cc2)cnc1-c1nc2cc(C(F)(F)F)ncc2n1C", "note": "[Compound P13]", "values": [
      {"measurement": "mortality at 400 ppm", "setting": "[4]", "value": "≥ 80", "unit": "%"},
      {"measurement": "pest or weed control at 400 ppm", "setting": "[5]", "value": "> 80", "unit": "%"},
      {"measurement": "pest or weed control at 400 ppm", "setting": "[2]", "value": "> 80", "unit": "%"},
      {"measurement": "pest or weed control at 12.5 ppm", "setting": "[6]", "value": "≥ 80", "unit": "%"},
      {"measurement": "pest or weed control at 400 ppm", "setting": "[7]", "value": "> 80", "unit": "%"},
      {"measurement": "pest or weed control at 400 ppm", "setting": "[3]", "value": "> 80", "unit": "%"},
      {"measurement": "pest or weed control at 400 ppm", "setting": "[8]", "value": "> 80", "unit": "%"},
      {"measurement": "pest or weed control at 400 ppm", "setting": "[9]", "value": "> 80", "unit": "%"}
    ]},
    {"smiles": "CCS(=O)(=O)c1cc(-c2cccc(OC(F)(F)F)c2)cnc1-c1nc2cc(C(F)(F)F)ncc2n1C", "note": "[Compound P25]", "values": [
      {"measurement": "pest or weed control at 400 ppm", "setting": "[5]", "value": "> 80", "unit": "%"},
      {"measurement": "pest or weed control at 400 ppm", "setting": "[2]", "value": "> 80", "unit": "%"},
      {"measurement": "pest or weed control at 12.5 ppm", "setting": "[6]", "value": "≥ 80", "unit": "%"},
      {"measurement": "pest or weed control at 400 ppm", "setting": "[7]", "value": "> 80", "unit": "%"},
      {"measurement": "pest or weed control at 400 ppm", "setting": "[3]", "value": "> 80", "unit": "%"},
      {"measurement": "pest or weed control at 400 ppm", "setting": "[8]", "value": "> 80", "unit": "%"},
      {"measurement": "pest or weed control at 400 ppm", "setting": "[9]", "value": "> 80", "unit": "%"}
    ]},
    {"smiles": "CCS(=O)(=O)c1cc(-c2ccc(C#N)cc2)cnc1-c1nc2cc(C(F)(F)F)ncc2n1C", "note": "[Compound P36]", "values": [
      {"measurement": "mortality at 400 ppm", "setting": "[4]", "value": "≥ 80", "unit": "%"},
      {"measurement": "pest or weed control at 400 ppm", "setting": "[5]", "value": "> 80", "unit": "%"},
      {"measurement": "mortality at 400 ppm", "setting": "[1]", "value": "≥ 80", "unit": "%"},
      {"measurement": "pest or weed control at 400 ppm", "setting": "[2]", "value": "> 80", "unit": "%"},
      {"measurement": "pest or weed control at 12.5 ppm", "setting": "[6]", "value": "≥ 80", "unit": "%"},
      {"measurement": "pest or weed control at 400 ppm", "setting": "[7]", "value": "> 80", "unit": "%"},
      {"measurement": "pest or weed control at 400 ppm", "setting": "[3]", "value": "> 80", "unit": "%"},
      {"measurement": "pest or weed control at 400 ppm", "setting": "[8]", "value": "> 80", "unit": "%"},
      {"measurement": "pest or weed control at 400 ppm", "setting": "[9]", "value": "> 80", "unit": "%"}
    ]},
    {"smiles": "CCS(=O)(=O)c1cc(-c2ccccc2)cnc1-c1nc2cc(C(F)(F)F)ncc2n1C", "note": "[Compound P39]", "values": [
      {"measurement": "melting point", "value": "170 to 172", "unit": "°C"}
    ]},
    {"smiles": "CCS(=O)(=O)c1cc(-c2ccc(F)cc2F)cnc1-c1nc2cc(C(F)(F)F)ncc2n1C", "note": "[Compound P41]", "values": [
      {"measurement": "melting point", "value": "223 to 225", "unit": "°C"}
    ]},
    {"smiles": "CCS(=O)(=O)c1cc(-c2cc(Cl)cc(Cl)c2)cnc1-c1nc2cc(C(F)(F)F)ncc2n1C", "note": "[Compound P42]", "values": [
      {"measurement": "melting point", "value": "270 to 272", "unit": "°C"}
    ]},
    {"smiles": "CCS(=O)(=O)c1cc(-c2cc(Cl)c(F)c(Cl)c2)cnc1-c1nc2cc(C(F)(F)F)ncc2n1C", "note": "[Compound P43]", "values": [
      {"measurement": "melting point", "value": "235 to 237", "unit": "°C"}
    ]},
    {"smiles": "CCS(=O)(=O)c1cc(-c2cccc(C#N)c2)cnc1-c1nc2cc(C(F)(F)F)ncc2n1C", "note": "[Compound P44]", "values": [
      {"measurement": "melting point", "value": "257 to 259", "unit": "°C"}
    ]},
    {"smiles": "CCS(=O)(=O)c1cc(-c2ccc(OC(F)(F)F)cc2)cnc1-c1nc2cc(C(F)(F)F)ncc2n1C", "note": "[Compound P45]", "values": [
      {"measurement": "melting point", "value": "181 to 183", "unit": "°C"}
    ]}
  ]
}
